# Literature values in US20120148541A1, “COMPOSITIONS AND METHODS TO GENERATE PILOSEBACEOUS UNITS” (priority 2010, published 2012).
# Legend:
# [1] = in published reports
# [2] = DMSO
smiles,measurement,setting,value
"c1cc(-c2cnn3cc(-c4ccc(OCCN5CCCCC5)cc4)cnc23)ccn1 [Dorsomorphin, dorsomorphin]",toxicity,[1],low toxicity
same,solubility,[2],soluble in DMSO
